The target in series [1] is Ba/F3 cells expressing BCR-ABL T315I (Homo sapiens, UniProt P00519, T315I, cells depend on it). Description: MTT cell viability assay, Experiment 3. It is filed as cell-based, murine. The following applies: Mean ± S.E.M, two independent experiments, read-out: IC50 cell viability, Ba/F3 cells T315I BCR-ABL. An excerpt:
(§1) This study evaluated the effect of the pure optical isomers on human leukemia cell viability in vitro. […] Two BCR-ABL-positive human leukemia cell lines, K562 and KU812, were used in this study. Besides, Ba/F3 cell transfectants expressing native or T315I BCR-ABL, whose viability is dependent on ectopically expressed BCR-ABL, were also used in this work. Ba/F3 cells expressing BCR-ABL^T315I were used for testing the efficiency of tested compounds on point mutation BCR-ABL^T315I, which cause drug resistance to Imatinib (Gleevec). U937 and JURKAT, two BCR-ABL-negative human leukemia cell lines, were employed to test the selectivity of tested compounds.
(§2) Cells were seeded in 24-well plates, and treated with drugs at corresponding concentrations. Cell viability was measured using a MTT (3-(4,5-dimethylthiazol-2-yl)-2,5-diphenyltetrazolium bromide)-based colorimetric assay with a 96-well plate reader. IC50 values were calculated using the mean of two independent experiments.

Series [2] concerns the target Ba/F3 cells expressing native BCR-ABL (Homo sapiens, UniProt P00519). Kind of series: MTT cell viability assay, Experiment 3. Particulars: Mean ± S.E.M, two independent experiments, read-out: IC50 cell viability, Ba/F3 cells Native BCR-ABL. It is filed as cell-based, murine.
Text: as §1, §2

Another series relates to JURKAT. Kind of series: MTT cell viability assay, Experiment 3. It is filed as cell-based. The following applies: Homo sapiens, MTT, Mean ± S.E.M, two independent experiments, read-out: IC50 cell viability, Non-CML leukemia cells JURKAT.
Text: (§3) This study evaluated the effect of the pure optical isomers on human leukemia cell viability in vitro. Ponatinib was used as the positive control. Two BCR-ABL-positive human leukemia cell lines, K562 and KU812, were used in this study. Besides, Ba/F3 cell transfectants expressing native or T315I BCR-ABL, whose viability is dependent on ectopically expressed BCR-ABL, were also used in this work. Ba/F3 cells expressing BCR-ABL^T315I were used for testing the efficiency of tested compounds on point mutation BCR-ABL^T315I, which cause drug resistance to Imatinib (Gleevec). U937 and JURKAT, two BCR-ABL-negative human leukemia cell lines, were employed to test the selectivity of tested compounds.
as §2

For the next series, the system named is K562. Kind of series: MTT cell viability assay, Experiment 3. It is filed as cell-based. Particulars: Homo sapiens, K562; MTT, Mean ± S.E.M, two independent experiments; read-out: IC50 cell viability, CML leukemia cells K562.
Text: as §3, §2

In the next series the test system is KU812. Kind of series: MTT cell viability assay, Experiment 3. It is filed as cell-based. The following applies: Homo sapiens, KU812; MTT, Mean ± S.E.M, two independent experiments; read-out: IC50 cell viability, CML leukemia cells KU812.
Text: as §3, §2

The test system of another series is U937. Description: MTT cell viability assay, Experiment 3. It is filed as cell-based. The following applies: Homo sapiens, U-937; MTT, Mean ± S.E.M, two independent experiments; read-out: IC50 cell viability, Non-CML leukemia cells U937.
Text: as §3, §2

The subject of another series is K562 cells. Description: Cell death assay, Experiment 1 (live cells counted by trypan blue). The format is cell-based. The following applies: Homo sapiens, 100 nM, 48 hours, read-out: % live cells (vs control).

As to `Cc1ccc(C(=O)Nc2ccc3c(c2)C(F)(F)C[C@H]3N2CCN(C)CC2)cc1C#Cc1cnc2cccnn12` [36-(R), (R)—N-(1,1-difluoro-2,3-dihydro-3-(4-methylpiperazin-1-yl)-1H-indan-6-yl)-3-(2-(imidazo[1,2-b]pyridazin-3-yl)ethynyl)-4-methylbenzamide], the GI50 in series [1] is above 100 nM; in series [2] it was 31.2 ± 3.8 nM. For the same molecule, the IC50 in the series on JURKAT is above 1000 nM; in the series with K562 it was 3.6 ± 0.1 nM; in the series with KU812 it was 2.7 ± 0.1 nM; with U937, above 1000 nM.

Turning to `Cc1ccc(C(=O)Nc2ccc3c(c2)C(F)(F)C[C@H]3N2CCN(C)CC2)cc1C#Cc1cnc(NC2CC2)nc1` [37-(R), (R)-3-(2-(2-(Cyclopropylamino)pyrimidin-5-yl)ethynyl)-N-(1,1-difluoro-2,3-dihydro-3-(4-methylpiperazin-1-yl)-1H-indan-6-yl)-4-methylbenzamide], the GI50 in series [1] is above 100 nM; in series [2], 62.5 ± 6.9 nM. Also, the IC50 with JURKAT turned out to be 400 ± 64.9 nM; in the series with K562, 10.4 ± 1.5 nM; in the series on KU812, 5.2 ± 0.2 nM; in the series on U937 it was 465 ± 9.7 nM.

In the case of `CN1CCN([C@@H]2CC(F)(F)c3cc(NC(=O)c4ccc(Cl)c(C#Cc5cnc6cccnn56)c4)ccc32)CC1` (single isomer, unassigned) [38-(R)], the GI50 in series [1] was above 100 nM; in series [2], 78.2 ± 2.3 nM. Moreover, the IC50 with JURKAT was above 1000 nM; with K562 it was 24.9 ± 9.9 nM; in the series with KU812, 11.9 ± 0.3 nM; with U937 it was above 1000 nM.

`CN1CCN([C@H]2CC(F)(F)c3cc(NC(=O)c4ccc(F)c(C#Cc5cnc6cccnn56)c4)ccc32)CC1` (single isomer, unassigned) [39-(S)]: the GI50 in series [1] was found to be 6.5 ± 1.2 nM; in series [2], 2.3 ± 0.5 nM. For the same molecule, the IC50 was above 1000 nM with JURKAT, 0.3 ± 0.2 nM in the series with K562, 0.2 ± 0.1 nM in the series on KU812 and above 1000 nM in the series on U937.

For `Cc1ccc(C(=O)Nc2ccc3c(c2)C(F)(F)C[C@@H]3N2CCN(C)CC2)cc1C#Cc1cnc(NC2CC2)nc1` [37-(S), (S)-3-(2-(2-(Cyclopropylamino)pyrimidin-5-yl)ethynyl)-N-(1,1-difluoro-2,3-dihydro-3-(4-methylpiperazin-1-yl)-1H-indan-6-yl)-4-methylbenzamide], the GI50 in series [1] is 12.4 ± 0.4 nM; in series [2], 3.5 ± 0.9 nM. Further, the IC50 is 280 ± 20 nM with JURKAT, 0.6 ± 0.1 nM with K562, 0.2 ± 0.1 nM in the series on KU812 and 165 ± 15 nM with U937.

In turn, `Cc1cn(-c2cc(NC(=O)c3ccc(Cl)c(C#Cc4cnc(NC5CC5)nc4)c3)cc(C(F)(F)F)c2)cn1` [Compound 33, 4-Chloro-3-(2-(2-(cyclopropylamino)pyrimidin-5-yl)ethynyl)-N-(3-(4-methyl-1H-imidazol-1-yl)-5-(trifluoromethyl)phenyl)benzamide] yielded a melting point of 163 to 165 °C. Further, the viability at 0.1 µM in the series with K562 cells was 7.97%.

As to `CN1CCN(Cc2ccc3nc(-c4ccc(Cl)c(C#Cc5cnc(NC6CC6)nc5)c4)[nH]c3c2)CC1` [Compound 10, 5-(2-(2-Chloro-5-(6-((4-methylpiperazin-1-yl)methyl)-1H-benzo[d]imidazol-2-yl)phenyl)ethynyl)-N-cyclopropylpyrimidin-2-amine], the melting point was in the range of 160 to 162 °C. For the same molecule, in the series with K562 cells, the viability at 0.1 µM was found to be 11%.

With `CN1CCN([C@@H]2CC(F)(F)c3cc(NC(=O)c4ccc(F)c(C#Cc5cnc6cccnn56)c4)ccc32)CC1` (single isomer, unassigned) [39-(R)], the GI50 in series [1] was above 100 nM; in series [2] it was 47.6 ± 4.5 nM. Moreover, the IC50 with JURKAT was above 1000 nM; in the series with K562, 6.4 ± 1.3 nM; with KU812, 3.6 ± 0.8 nM; in the series on U937, above 1000 nM.

On to `CN1CCN(Cc2ccc3nc(-c4ccc(Cl)c(C#Cc5cnc6cccnn56)c4)[nH]c3c2)CC1` [Compound 6, 3-(2-(2-Chloro-5-(6-((4-methylpiperazin-1-yl)methyl)-1H-benzo[d]imidazol-2-yl)phenyl)ethynyl)imidazo[1,2-b]pyridazine], for which the melting point fell in the range of 156 to 157 °C. Moreover, the viability at 0.1 µM in the series on K562 cells came to 10.1%.

The values are drawn from patent publication US9174996B2, “Protein kinase inhibitors” (Astar Biotech LLC, priority 2012, dated 2015).
